Measured values from patent US8343912B2, “Antibiotic compositions for the treatment of gram negative infections” (priority 2008, dated 2013).
≈ marks a conversion by molar mass, not a printed value. Marks after values point to notes of the source that are not given here. Numbered stars: 1 amine (or outer) side, 2 acyl side, 3 side chain; on linkers, the order of the positions; unused ones are H or OH. Bridge positions count the residues as written; N and C are the ends. Square brackets hold non-standard residues; d marks the D form. Peptide text beside a SMILES is read from it. * marks the point of attachment. Octanoyl(6-Me) = CCC(C)CCCCC(=O)*; NH(2-ClPh) = Clc1ccccc1N*; Dab = NCC[CH](N)C(=O)O; CO = O=C([*:1])[*:2]

Key:
E. coli 1699 = assay: MIC, broth microdilution; type: cell-based, Escherichia coli; conditions: Table 3B
Procedure: (§1) MIC testing was performed according to Clinical and Laboratory Standards Institute (CLSI) M7-A7 (2006) broth microdilution methods. Unless otherwise indicated, MIC values are provided in units of micrograms per milliliter.
(§2) One day prior to testing, individual colonies were isolated by streaking onto rich, non-selective Tryptic Soy agar with 5% lysed sheeps blood (TSAB) with incubation at 35-37° C. for 18-24 hours.
(§3) Cultures were prepared by touching 3-5 colonies into 3 mL of Cation adjusted Mueller Hinton Broth (caMHB) in a 14 mL tube (CaMHB was prepared and sterilized according to manufacturer's specifications). Cultures were grown at 37° C. 200 rpm for approximately four hours prior to density adjustment for addition to the MIC assay.
(§4) OD600 of growing cultures was measured and adjusted to approximately 10^5 colony forming units per mL (CFU/mL) in caMHB for MIC inoculation (approximately OD600 0.001).
(§5) Diluted cultures were used to inoculate 50 μL per well in broth microdilution assays (final volume 100 μl per well; compounds were prepared in two-fold dilutions).
(§6) Plates were incubated 16-20 hrs at 37° C., with shaking at 200 rpm.
(§7) OD600 was determined for all wells. Growth was defined as OD600>0.1. MICs were defined as the lowest concentration producing no visible turbidity (OD600<0.1).

Hygroscopicity = type: physicochemical
K. pneumonia 21 = assay: MIC, broth microdilution; type: cell-based, Klebsiella pneumoniae; conditions: Table 3B
Procedure: as §1, §2, §3, §4, §5, §6, §7

A. baumannii #1570 = assay: Thigh infection in neutropenic mice; type: in vivo; conditions: for Log10 CFU/mL thigh homogenate ± SD: thighs at 24 h; for ED−3log10 (dose for 3 log10 reduction in bacterial count vs water): thigh infection, sc, Compound 5 value corrected for lot potency 711 μg/mg
Procedure: Infections were induced in neutropenic mice by […] the left thigh of each mouse. Compound 5, or a comparator drug, either polymyxin B, colistin or imipenem, were administered subcutaneously at 1 hour and 6 hours post-infection. Eighteen hours after the last treatment, mice were euthanized humanely; the infected thighs were removed, homogenized, serially diluted, and plated on agar. The bacterial burden was then quantitated by colony count. Compound 5, polymyxin B, colistin, and imipenem were evaluated for their ability to decrease the bacterial burden in the infected thighs compared with water-treated control mice.
All the test compounds were dissolved in sterile water for administration by subcutaneous (sc) injection. A series of dilutions of test compounds were prepared in sterile water.
Mice were made neutropenic by ip administration with 150 mg/kg cyclophosphamide on day-4, followed by a second ip dose of 100 mg/kg cyclophosphamide on day-1. A diluted exponential-phase growing culture of A. baumannii #1570 corresponding to 1×10^7 or 5×10^4 CFU respectively, in 0.2 mL of sterile saline, was injected into the left thigh of conscious mice on day 0. The actual concentration of bacteria in the inoculum was confirmed by determination of viable counts by dilution plating on tryptic soy agar plates. The number of CFU of bacteria was determined after an incubation of 16 hours at 37° C.
Groups of five mice were used for each dose of the test compounds and the vehicle. Each group received sc injections of test compounds or vehicle at 1 hour post-infection, and then at 6 hours post-infection for a total of 2 doses. In each study, there were three to five dose groups per test compound. Eighteen hours after the last injection, the mice were euthanized by asphyxiation with CO2. The left thighs were removed aseptically, homogenized in 4 mL of distilled water and dilution plated on tryptic soy agar plates to quantify bacterial CFU. The number of CFU of bacteria in thighs was determined after an incubation of 16 hours at 37° C. (the CFU per milliliter of homogenate).
The results were expressed as the geometric mean log10 CFU/mL±the standard deviation. The limit of detection was 10 CFU per mL of thigh homogenate. Thighs were considered sterile when no CFU were detected on the agar. The efficacy of the test compounds was assessed by comparing the number of log10 CFU/mL measured in the treated mice with control animals treated with vehicle (water). The efficacy of Compound 5 was also compared with the positive comparator antibiotics polymyxin B, colistin and imipenem-cilastatin.
Dose response curves of test compounds were generated for each isolate. Regression lines were generated using Microsoft Excel to calculate the dose administered twice daily (BID) predicted to produce a 3 log10 reduction in bacterial count as compared to the water-treated control group [ED−3 log 10 (mg/kg, sc, BID)].

pH of aqueous solution = type: physicochemical; conditions: at 5 mg/mL in water
[1] = tested on: indole-positive Proteae, P. mirabilis, and S. marcescans; assay: In vitro activity against organisms intrinsically resistant to colistin; type: cell-based
Procedure: To evaluate the potency and spectrum of compounds of Formula (I), (i.e., Compounds designated 5 and 6), a study was conducted that put together a panel of 455 Gram negative strains, which included multi-drug resistant clinical isolates selected from various surveillance programs. Table 3A lists the strains that were included in the study and the activity of Compound 5, Compound 6, and colistin (polymyxin E, abbreviated PME). Strains with acquired resistance to colistin and/or carbapenems and/or broad spectrum cephalosporins were pre-selected and included in all organism groups evaluated.
as §1

[2] = tested on: 5 different Gram negative pathogens; assay: Efficacy in 8 animal models with 5 Gram negative pathogens; type: in vivo; conditions: 8 models, mouse and rat
Procedure: Compound 5 was tested for efficacy in 8 models (both mouse models and rat models) with 5 different Gram negative pathogens. […]

[3] = tested on: female cynomolgus monkeys; assay: Seven days of repeated IV administration, kidney findings (QD/BID mg/kg doses); type: in vivo, cynomolgus monkey; conditions: 6 mg/kg BID
Procedure: The kidney findings in female cynomolgus monkeys following seven days of repeated IV administration of Compound 5 were evident at dose levels of 6 mg/kg BID, 6 mg/kg QD, and 9 mg/kg QD, and to a lesser degree of severity at 3 and 4.5 mg/kg BID.

[4] = 2.0 mg/kg BID sc, 1 and 6 h post-infection, water control 7.75

SMILES	MIC E. coli 1699 (E. coli 1699)	Hygroscopicity (Hygroscopicity)	MIC K. pneumonia 21 (K. pneumonia 21)	solubility (Solubility profile; ethanol)	solubility (Solubility profile; water)	Log10 CFU/mL thigh homogenate ± SD (A. baumannii #1570; [4])	Log10 CFU/mL thigh homogenate ± SD (A. baumannii #1570; 4.0 mg/kg BID sc)	Log10 CFU/mL thigh homogenate ± SD (A. baumannii #1570; 8.0 mg/kg BID sc)	Log10 CFU/mL thigh homogenate ± SD (A. baumannii #1570; 12.0 mg/kg BID sc)	ED−3log10 (dose for 3 log10 reduction in bacterial count vs water) (A. baumannii #1570)	pH (pH of aqueous solution)	activity against organisms intrinsically resistant to colistin [1]	logP (Lipophilicity (Log P))	models in which efficacy was demonstrated [2]	blood urea nitrogen (BUN) and serum creatinine ([3]; 6 mg/kg QD, 9 mg/kg QD)	kidney histopathological changes ([3]; 6 and 9 mg/kg QD, lesser severity at 3 and 4.5 mg/kg BID, 7 days IV)
CC(C)C[C@@H]1NC(=O)[C@@H](Cc2ccccc2)NC(=O)[C@H](CCN)NC(=O)[C@@H](NC(=O)[C@H](CCN)NC(=O)[C@@H](NC(=O)[C@H](CCN)NC(=O)Nc2ccccc2Cl)[C@@H](C)O)CCNC(=O)[C@H]([C@@H](C)O)NC(=O)[C@H](CCN)NC(=O)[C@H](CCN)NC1=O [Compound 5, (S)-4-amino-N-((2S,3R)-1-((S)-4-amino-1-oxo-1-((3S,6S,9S,12S,15R,18S,21S)-6,9,18-tris(2-aminoethyl)-15-benzyl-3-((R)-1-hydroxyethyl)-12-isobutyl-2,5,8,11,14,17,20-heptaoxo-1,4,7,10,13,16,19-heptaazacyclotricosan-21-ylamino)butan-2-ylamino)-3-hydroxy-1-oxobutan-2-yl)-2-(3-(2-chlorophenyl)ureido)butanamide] ({NH(2-ClPh)-CO}-[Dab]T[Dab][Dab][Dab][dF]L[Dab][Dab]T; lactam 4-C)	2 micrograms/mL	Very hygroscopic	2 micrograms/mL	200 µg/mL (≈ 164 µM)	> 300000 µg/mL	6.93 ± 0.56 Log10 CFU/mL	6.64 ± 0.55 Log10 CFU/mL	5.06 ± 0.80 Log10 CFU/mL	3.97 ± 0.34 Log10 CFU/mL	6.4^b mg/kg, BID	5.9, at 5 mg/mL in water	limited activity	< -1	7 out of 8	increase	minimal to mild degeneration/necrosis and regeneration of tubular epithelium
CCC(C)CCCCC(=O)NC(CCN)C(=O)NC(C(=O)NC(CCN)C(=O)NC1CCNC(=O)C(C(C)O)NC(=O)C(CCN)NC(=O)C(CCN)NC(=O)C(CC(C)C)NC(=O)C(Cc2ccccc2)NC(=O)C(CCN)NC1=O)C(C)O (stereo not drawn) [Polymyxin B, polymyxin B, reference compound] ({Octanoyl(6-Me)}-[Dab]T[Dab][Dab][Dab]FL[Dab][Dab]T; lactam 4-C; configuration not given here)	–	–	–	–	–	6.04 ± 1.10 Log10 CFU/mL	4.94 ± 1.03 Log10 CFU/mL	4.07 ± 0.41 Log10 CFU/mL	4.19 ± 0.59 Log10 CFU/mL	4.8 mg/kg, BID	–	–	–	–	–	–
